Assay results published in ChEMBL document CHEMBL1122772, “Bis(3,5-diisopropylsalicylato)copper(II), a potent radioprotectant with superoxide dismutase mimetic activity” (J Med Chem, 1984).

Columns and labels:
Assay type in all cases: functional, organism-based
Mus musculus [1] = species on record: Mus musculus; assay: Percent reactivity in disproportionating diffusion controlled disproportionation of superoxide
Mus musculus [2] = species on record: Mus musculus; assay: Concentration required for 50% inhibition of superoxide reduction of nitroblue tetrazolium.
Mus musculus [3] = species on record: Mus musculus; assay: Rate of diffusion-controlled disproportionation of superoxide

Substance | Reactivity (Mus musculus [1]) | Concentration (Mus musculus [2]) | Rate (Mus musculus [3])
bis(2-Hydroxy-3,5-diisopropyl-benzoic acid)copper(II)(bis(3,5-diisopropylsalicylato)copper(II)) | 0.7% | 2.9 µM | 2e+09 M⁻¹ s⁻¹
bis(2-Hydroxy-benzoic acid)copper(II) | 0.65% | 4.6 µM | 1.6e+09 M⁻¹ s⁻¹
